{
  "source": "patent US20130196999A1",
  "about": "“METHODS OF CONTROLLING NEONICOTINOID RESISTANT APHIDS” (SYNGENTA CROP PROTECTION LLC, priority 2010, published 2013)",
  "key": {"[1]": {"test_system": "neonicotinoid insecticide resistant aphid strain", "assay": "Leaf disc spray bioassay, aphid mortality, resistant strain", "format": "in vivo, aphids", "settings": "for LC50 with 95% confidence limit, resistant strain: mixed age aphids on chinese cabbage leaf discs, Potter Tower spray, mortality 72 hours after treatment, strain collected from peach orchard, Avignon region, 2009", "procedure": "(§1) The following bioassay methodology was utilized to generate the data included in the table:\n(§2) 5 cm leaf discs were taken from fully expanded chinese cabbage leaves and placed with the underside facing upwards onto water agar in 5 cm Petri dishes. The leaf discs are infested with between 30 and 40 mixed age aphids 24 hours prior to insecticide treatment. The leaf surface is sprayed with the appropriate test solutions in a Burkhard Potter Tower at an approximate water volume of […]. Test containers are stored at 21° C., 60% RH and 16:8 light/dark. Aphids were assessed for mortality 72 hours after treatment."}, "[2]": {"test_system": "neonicotinoid insecticide susceptible strain 4106A", "assay": "Leaf disc spray bioassay, aphid mortality, susceptible strain", "format": "in vivo", "settings": "mixed age aphids on chinese cabbage leaf discs, Potter Tower spray, mortality 72 hours after treatment; strain 4106A from Rothamsted Research", "procedure": "as §1, §2"}},
  "data": [
    {"smiles": "CC1=NNC(=O)N(N=Cc2cccnc2)C1", "note": "[pymetrozine, 4,5-dihydro-6-methyl-4-(3-pyridylmethyleneamino)-1,2,4-triazin-3(2H)-one]", "values": [
      {"measurement": "LC50 with 95% confidence limit, resistant strain", "setting": "[1]", "value": "3.07 (0.97-6.59) ppm"},
      {"measurement": "cross-resistance with neonicotinoid insecticides", "setting": "[1]; neonicotinoid resistant populations of aphids", "value": "no cross-resistance"},
      {"measurement": "LC50 with 95% confidence limit, susceptible strain", "setting": "[2]", "value": "0.52 (0.4-0.66) ppm"}
    ]},
    {"smiles": "CN1COCN(Cc2cnc(Cl)s2)/C1=N\\[N+](=O)[O-]", "note": "[thiamethoxam, reference compound]", "values": [
      {"measurement": "LC50 with 95% confidence limit, resistant strain", "setting": "[1]", "value": "148 (128-172) ppm"},
      {"measurement": "LC50 with 95% confidence limit, susceptible strain", "setting": "[2]", "value": "0.35 (0.3-0.41) ppm"}
    ]}
  ]
}
